Test results reported in PubChem BioAssay (NCI).
“And” between values parts separate entries of the source, which are not always exact repeats. Equal entries are not always repeated.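 Results reflect a 48-hour exposure of cells in 96-well plates to compound at five concentrations. Here, GI50 denotes the concentration required for 50% inhibition of growth. TGI: total growth inhibition.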

Legend:
Assay in all cases: NCI-60 cell line screen, 48 h
DU-145 prostate = tested on: DU-145 prostate
HT29 colon = tested on: HT29 colon
K-562 leukemia = tested on: K-562 leukemia
KM12 colon = tested on: KM12 colon
LOX IMVI melanoma = tested on: LOX IMVI melanoma
MDA-MB-435 = tested on: MDA-MB-435
PC-3 prostate = tested on: PC-3 prostate
RXF 393 renal = tested on: RXF 393 renal
SF-268 CNS = tested on: SF-268 CNS
SNB-75 CNS = tested on: SNB-75 CNS

SMILES | GI50 (DU-145 prostate) [µM] | TGI (DU-145 prostate) [µM] | GI50 (HT29 colon) [µM] | TGI (HT29 colon) | GI50 (K-562 leukemia) [µM] | TGI (K-562 leukemia) [µM] | GI50 (KM12 colon) [µM] | TGI (KM12 colon) [µM] | GI50 (LOX IMVI melanoma) [µM] | TGI (LOX IMVI melanoma) [µM] | GI50 (MDA-MB-435) [µM] | TGI (MDA-MB-435) [µM] | GI50 (PC-3 prostate) [µM] | TGI (PC-3 prostate) [µM] | GI50 (RXF 393 renal) [µM] | TGI (RXF 393 renal) [µM] | GI50 (SF-268 CNS) [µM] | TGI (SF-268 CNS) | GI50 (SNB-75 CNS) [µM] | TGI (SNB-75 CNS)
N#Cc1c(-c2ccc(Cl)cc2)csc1NC(=O)Nc1cccc(C(F)(F)F)c1 | 3.21 | 13.9 | 2.5 | 10.5 µM | 2.97 | 12.2 | 2.64 | 9.9 | 2.64 | 9.48 | 2.73 | 10.3 | 2.43 | 11.5 | 2.33 | 5.96 | 3.28 | 14.7 µM | 2.01 | 12.7 µM
COC(=O)C1=C(C(=O)OC)C(C(=O)OC)C(C(=O)OC)C(C(=O)OC)(C(=O)OC)C(C(=O)OC)=C1C(=O)OC (stereo not drawn) | – | 32.1 | – | 35.3 µM | – | 22.4 | – | 31.3 | – | 28.2 | – | 37.5 | – | 30.1 | – | 16.7 | – | 42.3 µM | – | 34.5 µM
CC(=O)OC1Oc2cc(C)c(C)cc2-c2oc(=O)c(-c3ccccc3)cc21 (stereo not drawn) | 0.297 | 1.2 | 0.323 | 4.39 µM | 0.178 | > 100 | 0.307 | 11.8 | 1.47 | > 100 | 0.036 | 0.199 | 0.435 | > 100 | 0.343 | 37.1 | 0.58 | > 50.6 µM | 0.21 | 0.902 µM
CCn1c(-c2nonc2N)nc2c(C#CC(C)(C)O)ncc(OC[C@@H]3CCCN3)c21 | 4.76 | > 22.9 | 5.15 | > 19.7 µM | 9 | > 25 | 2.61 | 18.5 | 5.5 | > 19.4 | 11.6 | > 25 | 4.39 | > 25 | 0.189 | 3.18 | 7.84 | > 25 µM | 0.942 | > 21.8 µM
O=C(Nc1nc2ccc(F)cc2s1)c1cccnc1Nc1ccc(Cl)cc1Cl | 3.22 | 13.4 | 2.05 | 9.75 µM | 1.93 | 9.26 | 2.78 | 9.54 | 3.62 | 14.6 | 3.04 | 14.3 | 2.21 | 9.45 | 3.31 | 11.7 | 3.34 | 16.3 µM | 1.96 | 9.14 µM
COc1cccc(C2CC(=O)Nc3cc4c(cc32)CCC4)c1OC (stereo not drawn) | 3.48 | 16.1 | 3.26 | 12.6 µM | 3.07 | 37.5 | 4.21 | 18.6 | 4.26 | 16.8 | 1.44 | 4.1 | 3.41 | 47.3 | 3.34 | 13.7 | 5.34 | 27.5 µM | 2.31 | 11.9 µM
CCCCCCCCCCCCCCCCCCNC(=O)[C@H]1CSC(c2ccc(F)c(OC)c2)N1 (stereo partly drawn) | 1.79 | > 50 | 1.03 | 2.12 µM | 0.774 | 2.45 | 0.899 | 1.79 | 0.788 | 2.07 | 0.518 | 1.2 | 1.55 | 12 | 0.894 | 1.6 | 0.908 | 1.84 µM | 0.87 | 1.63 µM
N=C(N)SCC(=O)O | – | > 100 | – | > 100 µM | – | > 100 | – | > 100 | – | > 100 | – | > 100 | – | > 100 | – | > 100 | – | > 100 µM | – | > 100 µM
COc1ccc(CNC(=O)c2ccc(-c3cc(-c4nnc(C)o4)ccc3C)cc2)cc1 | > 25 | > 25 | > 25 | > 25 µM | 11.2 | > 25 | > 25 | > 25 | > 25 | > 25 | 10.6 | > 25 | 19.2 | > 25 | > 25 | > 25 | 21 | > 25 µM | 14.2 | > 25 µM
C=C[C@@]1(C)CC(=O)[C@]2(O)[C@@]3(C)[C@@H](O)CCC(C)(C)[C@@H]3[C@H](O)[C@@H](OC(C)=O)[C@@]2(C)O1 | – | > 100 | – | > 100 µM | – | > 100 | – | > 100 | – | > 100 | – | > 100 | – | > 100 | – | > 100 | – | > 100 µM | – | > 100 µM
C=C1C(=O)C23CC1CCC2C12CO[C@@]3(O)[C@@H](O)C1C(C)(C)C=CC2=O (stereo partly drawn) | – | 41.3 | 2.12 | 0.756 µM and 5.49 µM | – | > 100 | – | 29.5 | – | 11.5 | – | 11.1 | – | 7.53 | – | 1.34 | 3.11 | 6.77 µM and 11 µM | 13.6 | 12.7 µM and 26.4 µM
COc1ccc(-c2nn(-c3cccc(Cl)c3)cc2/C=C2\C(=N)N(c3ccccc3)N=C2N)cc1 | 1.37 | > 47.9 | 2.57 | 24.5 µM | 0.352 | 32.6 | 0.2 | 1.79 | 0.337 | 4.58 | 0.495 | 21.2 | 0.601 | > 59 | 17.5 | > 80.6 | 4.52 | > 100 µM | 18.8 | 98.6 µM
Cc1ccc(NCCNCC(O)CO)c2c(=O)c3ccccc3sc12 (stereo not drawn) | 1.28 | 2.62 | 1.41 | 3.04 µM | 1.52 | 3.26 | 1.74 | 3.6 | 1.43 | 2.84 | 1.52 | 3.1 | 1.58 | 3.22 | 1.43 | 2.89 | 1.81 | 3.96 µM | 2.07 | 11.5 µM
